Data on 1 molecule can be found in publication PMC4700268 (Frontiers in Pharmacology, 2016).

For data set [1], the system named is HeLa cells transiently transfected with hOAT1.
Procedure: The Hela cells were plated in a 96-well plate and transfected with hOAT1 as described above. […] The controls were prepared simultaneously. After 24 h of incubation, the reagent from the kit CellTiter 96 AQueous One Solution Cell Proliferation Assay (CellTiter 96, PROMEGA, USA) was added. After 1.5 h of incubation at 37°C the absorbance was recorded at 490 nm.
Data set [2] has as its target T1, hOAT1 (Homo sapiens, UniProt Q4U2R8).
T1 sequence (Q4U2R8 1-563): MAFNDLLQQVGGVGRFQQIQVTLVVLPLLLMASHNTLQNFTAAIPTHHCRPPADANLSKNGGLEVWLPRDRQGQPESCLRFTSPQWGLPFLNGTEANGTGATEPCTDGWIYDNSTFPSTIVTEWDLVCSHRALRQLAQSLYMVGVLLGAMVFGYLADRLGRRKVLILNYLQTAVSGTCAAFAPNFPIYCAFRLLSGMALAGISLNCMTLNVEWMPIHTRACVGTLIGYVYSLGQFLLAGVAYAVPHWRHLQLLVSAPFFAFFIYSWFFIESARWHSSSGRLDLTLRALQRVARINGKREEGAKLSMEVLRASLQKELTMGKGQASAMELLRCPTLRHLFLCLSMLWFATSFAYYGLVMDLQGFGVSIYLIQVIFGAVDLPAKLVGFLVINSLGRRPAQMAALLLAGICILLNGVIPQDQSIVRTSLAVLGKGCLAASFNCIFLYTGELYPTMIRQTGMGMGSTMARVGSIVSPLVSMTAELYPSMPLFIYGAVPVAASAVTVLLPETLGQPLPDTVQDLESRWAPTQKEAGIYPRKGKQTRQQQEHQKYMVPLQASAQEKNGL
Nature of the data set: Inhibition of [3H]PAH uptake in hOAT1 transfected HeLa cells. The class given is in vitro ADME. Details: host or cells: HeLa cells, transient transfection. As to conditions: 1 μM [3H]PAH, HeLa cells transiently transfected with hOAT1, 2 min, 37°C; read-out: IC50, inhibition of hOAT1 mediated transport. On the procedure:
(§1) Inhibitory transport assays were carried out in 24-well plates as described previously ([Mandikova et al., 2013]). Transport assays in HeLa cells transiently transfected with the hOAT1 expression construct were performed 48 h after transfection. Transport assays in MDCK II cells transiently transfected with hOCT2, hCNT2 or hCNT3 were performed 24 h after transfection. The cultivation medium was removed and the cells were washed with transport solution and preincubated for 10 min at 37°C. The standard radiolabeled substrate or tested radioactive antiviral substance dissolved in transport solution was added to the cells and incubated for 2 min. […] After the designated time period, the incubation was stopped by washing the cells twice with ice-cold solution containing 137 mM NaCl and 10 mM HEPES, pH 7.4. The cells were disintegrated with 0.1 mL of Triton X 0.5% in 100 mM NaOH for 1 h. […] IC50 values were calculated using non-linear regression analysis using GraphPad Prism software (version 6).

The target of a further data set is T2, hCNT2 (Homo sapiens, UniProt O43868).
T2 sequence (O43868 1-658): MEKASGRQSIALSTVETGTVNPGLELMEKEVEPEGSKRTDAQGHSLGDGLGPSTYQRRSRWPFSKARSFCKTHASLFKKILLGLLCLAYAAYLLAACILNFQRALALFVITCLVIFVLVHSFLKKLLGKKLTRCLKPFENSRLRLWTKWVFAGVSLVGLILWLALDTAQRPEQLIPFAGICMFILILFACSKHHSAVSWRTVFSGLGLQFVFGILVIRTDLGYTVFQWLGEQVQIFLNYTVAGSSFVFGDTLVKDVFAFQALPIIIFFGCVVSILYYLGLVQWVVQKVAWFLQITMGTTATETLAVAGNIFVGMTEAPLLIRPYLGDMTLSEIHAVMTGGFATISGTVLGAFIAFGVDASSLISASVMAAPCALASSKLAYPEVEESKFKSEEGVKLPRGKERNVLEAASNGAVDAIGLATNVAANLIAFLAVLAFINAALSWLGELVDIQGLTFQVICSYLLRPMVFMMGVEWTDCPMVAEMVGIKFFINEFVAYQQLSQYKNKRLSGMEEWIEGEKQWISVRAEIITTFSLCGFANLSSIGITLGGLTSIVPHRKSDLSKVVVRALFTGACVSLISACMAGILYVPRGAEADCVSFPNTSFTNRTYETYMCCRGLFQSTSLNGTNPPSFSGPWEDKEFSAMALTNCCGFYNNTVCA
Nature of the data set: Inhibition of [3H]uridine uptake in hCNT2 transfected MDCK II cells. The class given is in vitro ADME. Also noted: host or cells: MDCK II cells, transient transfection. To be noted: 1 μM [3H]uridine, MDCK II cells transiently transfected with hCNT2, 2 min, 37°C; read-out: IC50, inhibition of hCNT2 mediated transport. On the procedure:
Inhibitory transport assays were carried out in 24-well plates as described previously ([Mandikova et al., 2013]). Transport assays in HeLa cells transiently transfected with the hOAT1 expression construct were performed 48 h after transfection. Transport assays in MDCK II cells transiently transfected with hOCT2, hCNT2 or hCNT3 were performed 24 h after transfection. The cultivation medium was removed and the cells were washed with transport solution and preincubated for 10 min at 37°C. The standard radiolabeled substrate or tested radioactive antiviral substance dissolved in transport solution was added to the cells and incubated for 2 min. [^3H]PAH (1 μM) was used as a prototypical substrate for OATs, [^3H]MPP^+ (1 μM) for OCTs and [^3H]uridine (1 μM) for CNTs. […] After the designated time period, the incubation was stopped by washing the cells twice with ice-cold solution containing 137 mM NaCl and 10 mM HEPES, pH 7.4. The cells were disintegrated with 0.1 mL of Triton X 0.5% in 100 mM NaOH for 1 h.
IC50 values were calculated using non-linear regression analysis using GraphPad Prism software (version 6).

For data set [3], the system named is MDCK II cells transiently transfected with hCNT3. Nature of the data set: MTS cell viability assay in hCNT3 transfected MDCK II cells. The class given is cell-based, canine. As to conditions: 24 h, 250–1000 μM, hCNT3 vs empty vector MDCK II cells. As for the experimental part:
The controls were prepared simultaneously.

Data set [4] deals with T1, hOAT1. Nature of the data set: Inhibition by ETV of [3H]adefovir, [3H]tenofovir, [3H]cidofovir accumulation in hOAT1 transfected HeLa cells. The class given is in vitro ADME. Also noted: host or cells: HeLa cells, transient transfection. As to conditions: 2 min. On the procedure:
as §1

As to `C=C1[C@H](CO)[C@@H](O)C[C@@H]1n1cnc2c(=O)[nH]c(N)nc21` [ETV, Entecavir], the “Effect of hOAT1 expression on cytotoxicity (cell viability)” value in data set [1] is recorded as “no significant effect on cell viability”. Besides, the IC50 at hOAT1 [2] was 175 µM; at hCNT2, 242 µM; at hOAT1 [4] (IC50, inhibition of [3H]cidofovir accumulation by hOAT1, [3H]cidofovir 70 μM), 695 µM; at hOAT1 [4] ([3H]adefovir 0.1 μM, read-out: IC50, inhibition of [3H]adefovir accumulation by hOAT1), 432 µM; on hOAT1 [4] ([3H]tenofovir 0.5 μM, read-out: IC50, inhibition of [3H]tenofovir accumulation by hOAT1), 704 µM. Also, the “Effect of hCNT3 expression on cytotoxicity” value in data set [3] is listed as “did not prove any significant increase in cytotoxicity”.

The IC50 is the concentration that gives 50% inhibition.
